Data: PMC7555035, “In Vitro Inhibition of Phosphodiesterase 3B (PDE 3B) by Anthocyanin-Rich Fruit Juice Extracts and Selected Anthocyanins” (International Journal of Molecular Sciences, 2020)
“Also recorded” adds a separate entry of the source.

Legend:
[1] = test system: PDE in human platelet lysates; set-up: method as in PMID 25247601; conditions: in vitro; cited from earlier work
[2] = test system: phosphodiesterase 3′,5′-cyclic nucleotide 5′nucleotidohydrolase; set-up: method as in PMID 18617377; conditions: 0.01%, diluted in dimethyl sulfoxide; cited from earlier work
[3] = molecular target: T1, PDE 3B (recombinant, EC 3.1.4.17) (Homo sapiens, UniProt Q13370); assay: cAMP-specific PDE activity assay (cell-free, radiochemical); assay type: biochemical; conditions: for IC50 of single anthocyanins: given in µg/mL; for IC50: mean ± SD, n = 3–4, read-out: IC50 of cyanidin and anthocyanins; for influence on PDE activity (in words): c = 25–2000 µM
T1 construct: purchased Sigma Aldrich (St. Louis, MO, USA)
T1 sequence (Q13370 whole entry, species assumed): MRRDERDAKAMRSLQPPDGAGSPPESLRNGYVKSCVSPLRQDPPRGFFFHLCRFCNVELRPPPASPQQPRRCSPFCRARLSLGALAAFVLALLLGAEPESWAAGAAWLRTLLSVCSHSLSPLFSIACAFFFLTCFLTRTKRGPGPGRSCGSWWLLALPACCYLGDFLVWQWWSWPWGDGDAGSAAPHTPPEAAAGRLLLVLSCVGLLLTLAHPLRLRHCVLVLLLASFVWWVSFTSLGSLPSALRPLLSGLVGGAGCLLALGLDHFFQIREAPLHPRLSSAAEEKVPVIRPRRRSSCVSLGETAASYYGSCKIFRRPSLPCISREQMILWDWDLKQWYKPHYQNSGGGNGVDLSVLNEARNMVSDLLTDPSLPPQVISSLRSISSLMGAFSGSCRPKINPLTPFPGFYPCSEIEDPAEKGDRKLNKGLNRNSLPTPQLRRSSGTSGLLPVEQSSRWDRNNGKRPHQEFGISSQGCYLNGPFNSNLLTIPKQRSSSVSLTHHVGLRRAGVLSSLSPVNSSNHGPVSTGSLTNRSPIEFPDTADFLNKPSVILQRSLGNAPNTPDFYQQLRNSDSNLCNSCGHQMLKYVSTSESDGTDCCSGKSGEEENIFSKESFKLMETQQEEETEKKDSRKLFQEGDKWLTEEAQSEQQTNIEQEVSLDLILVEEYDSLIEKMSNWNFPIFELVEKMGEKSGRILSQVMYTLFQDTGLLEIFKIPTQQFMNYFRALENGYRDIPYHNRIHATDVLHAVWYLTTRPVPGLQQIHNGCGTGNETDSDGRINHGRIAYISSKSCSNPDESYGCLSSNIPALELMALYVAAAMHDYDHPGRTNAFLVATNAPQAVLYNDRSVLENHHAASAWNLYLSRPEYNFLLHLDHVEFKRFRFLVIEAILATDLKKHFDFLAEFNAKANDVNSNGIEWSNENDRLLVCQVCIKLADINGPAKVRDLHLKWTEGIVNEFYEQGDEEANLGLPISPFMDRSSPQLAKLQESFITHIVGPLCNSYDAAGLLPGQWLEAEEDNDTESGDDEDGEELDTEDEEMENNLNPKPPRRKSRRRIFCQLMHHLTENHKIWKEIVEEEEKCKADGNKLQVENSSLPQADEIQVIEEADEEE
Method: The inhibitory effect of each extract on PDE 3B was measured according to the method published by Pöch et al. with slight modifications. One hundred microliters (100 µL) of the sample and 20 µL of PDE 3B (200 Units/mL) were incubated for 15 min at 4°C. Afterwards, a 50 µL volume of cAMP Mix (30 mM Tris/HCl pH 7.4, 9 mM MgCl2, 3 mM 5′AMP, 3 µM cAMP, 2.6 µCi/mL [2,8-^3H]-cAMP) was added and the mixture incubated for 25 min at 37 °C to allow for reaction. […] Experiments were performed in triplicate, and IC50 values were determined after at least three independent experiments. The ranges of test concentrations of extracts and single substances were intentionally chosen to align with similar ranges used for previous studies (extracts < 600 µg/mL; ACs < 2000 µM) to facilitate comparison with previous experiments.

human PDE 5A1 = test system: human PDE 5A1; set-up: method as in PMID 15769121; conditions: cited from earlier work
[4] = test system: phosphodiesterase from rat adipocytes; set-up: method as in PMID 1384499; conditions: cited from earlier work
[5] = test system: PDE isolated from the lung tumor xenograft cell line LXFL529L; set-up: method as in PMID 29113064; conditions: cited from earlier work
PDE 1 = test system: PDE 1; set-up: method as in PMID 27558680; conditions: in vitro; cited from earlier work
[6] = test system: cytosolic PDE activity in HT29 cells; set-up: method as in PMID 15497183; conditions: cited from earlier work
[7] = set-up: method as in PMID 22913378; conditions: cited from earlier work

For `Cn1c(=O)c2c(ncn2C)n(C)c1=O` [caffeine], the IC50 [1] is listed as 700 µM and the PDE inhibition [2] is listed as 56%.

For `Oc1cc(O)c2cc(O[C@@H]3OC[C@H](O)[C@H](O)[C@H]3O)c(-c3ccc(O)c(O)c3)[o+]c2c1.[Cl-]` [cyanidin-3-arabinoside, cyanidin-3-arabinoside chloride], the “rel. PDE activity (% of solvent control)” value ([3]; c = 600 µM) was 32.3 ± 2.9%, the “IC50 of single anthocyanins” value [3] was 108 ± 6 µg/mL and the IC50 [3] was 257 ± 13 µM.

For `COc1cc(-c2[o+]c3cc(O)cc(O)c3cc2O)cc(OC)c1O` [malvidin], the IC50 (human PDE 5A1) is given as 24.9 µM.

In the case of `O=c1cc(-c2ccc(O)c(O)c2)oc2cc(O)cc(O)c12` [luteolin], the “inhibitory potency relative to 3-isobutyl-2-methylxanthine (in words)” value [4] is given as “comparable to or greater than 3-isobutyl-2-methylxanthine” and the IC50 [5] is given as 41 ± 10 µM.

In the case of `O=C(/C=C/c1ccc(O)c(O)c1)O[C@@H]1C[C@](O)(C(=O)O)C[C@@H](O)[C@H]1O` [chlorogenic acid], the IC50 (PDE 1) is given as 36.7 ± 1.6 µM.

In the case of `OC[C@H]1O[C@@H](Oc2cc3c(O[C@@H]4O[C@H](CO)[C@@H](O)[C@H](O)[C@H]4O)cc(O)cc3[o+]c2-c2ccc(O)c(O)c2)[C@H](O)[C@@H](O)[C@@H]1O.[Cl-]` [cyanidin-3,5-diglucoside, cyanidin-3,5-diglucoside chloride], the “influence on PDE activity (in words)” value [3] is reported as “inactive; also recorded: no effect”.

For `O=C(O)c1cc(O)c(O)c(O)c1` [gallic acid], the IC50 (PDE 1) is given as 325 ± 3.62 µM.

In the case of `COc1cc(-c2[o+]c3cc(O)cc(O)c3cc2O[C@@H]2O[C@H](CO)[C@@H](O)[C@H](O)[C@H]2O)ccc1O.[Cl-]` [peonidin-3-glucoside, Peonidin-3-glucoside chloride], the “concentration above which PDE activity significantly diminished” value [3] is reported as “above 55 µM”, the “rel. PDE 3B activity (% of solvent control)” value ([3]; c = 271 µM) is reported as “comparable to those seen with caffeine” and the “IC50 of single anthocyanins” value [3] is reported as 56 ± 20 µg/mL. The IC50 [3] was 120 ± 44 µM.

With `C[C@@H]1O[C@@H](OC[C@H]2O[C@@H](Oc3cc4c(O)cc(O)cc4[o+]c3-c3ccc(O)c(O)c3)[C@H](O)[C@@H](O)[C@@H]2O)[C@H](O)[C@H](O)[C@H]1O.[Cl-]` [cyanidin-3-rutinoside, cyanidin-3-rutinoside chloride] the “influence on PDE activity (in words)” value [3] was “inactive”.

In the case of `O=c1c(O)c(-c2ccc(O)cc2)oc2cc(O)cc(O)c12` [kaempferol], the IC50 [4] is given as 58 µM.

In the case of `OC[C@H]1O[C@@H](Oc2cc3c(O)cc(O)cc3[o+]c2-c2ccc(O)c(O)c2)[C@H](O)[C@@H](O)[C@@H]1O.[Cl-]` [cyanidin-3-glucoside, cyanidin-3-glucoside chloride], the “inhibition of PDE 3B” value ([3]; c = 600 µM) is reported as 63%, the “rel. PDE activity (% of solvent control)” value ([3]; c = 600 µM) is reported as “around 40%” and the “IC50 of single anthocyanins” value [3] is reported as 134 ± 25 µg/mL. The IC50 [3] was 299 ± 56 µM and the PDE inhibition [2] was 99%.

In the case of `O=c1c(O)c(-c2cc(O)c(O)c(O)c2)oc2cc(O)cc(O)c12` [myricetin], the IC50 [4] is listed as 125 µM.

For `O=c1c(O)c(-c2ccc(O)c(O)c2)oc2cc(O)cc(O)c12` [Quercetin], the “inhibitory potency relative to 3-isobutyl-2-methylxanthine (in words)” value [4] is given as “comparable to or greater than 3-isobutyl-2-methylxanthine”.

In the case of `COc1cc(-c2[o+]c3cc(O)cc(O)c3cc2O[C@@H]2O[C@H](CO)[C@@H](O)[C@H](O)[C@H]2O)cc(OC)c1O.[Cl-]` [malvidin-3-glucoside, malvidin-3-glucoside chloride], the “minimum rel. PDE activity (% of solvent control)” value ([3]; c = 1328 µM) is given as 71.4 ± 9.7% and the IC50 (human PDE 5A1) is given as 35.4 µM.

For `Oc1cc(O)c2cc(O)c(-c3ccc(O)c(O)c3)[o+]c2c1` [cyanidin, cyanidin chloride], the IC50 [6] is listed as roughly 175 µM, the “stability in cell culture medium (in words)” value [7] is listed as “degraded rapidly” and the remaining activity at 11 µM ([3]; c = 11 µM, read-out: rel. PDE 3B activity (% of solvent control)) is listed as 94.7 ± 2.8%. For the same molecule, the remaining activity at 271 µM ([3]; c = 271 µM, read-out: rel. PDE 3B activity (% of solvent control)) was 28.7 ± 6.5% and the IC50 [3] was 105 ± 11 µM.

In the case of `O=C(/C=C/c1ccc(O)c(O)c1)O[C@@H]1[C@H](O)C[C@@](O)(C(=O)O)C[C@H]1OC(=O)/C=C/c1ccc(O)c(O)c1` (stereo in doubt) [3,4-dicaffeoylquinic acid], the IC50 [5] is given as greater than 1000 µM.

For `OC[C@H]1OC(Oc2cc3c(O)cc(O)cc3[o+]c2-c2ccc(O)c(O)c2)[C@H](O)[C@@H](O)[C@H]1O.[Cl-]` (stereo partly drawn) [cyanidin-3-galactoside, cyanidin-3-galactoside chloride], the “concentration below which no influence on PDE activity” value [3] was “below 884 µM”, the “rel. PDE activity (% of solvent control)” value ([3]; c = 2000 µM) was 52.3 ± 13.7% and the “influence on PDE activity (in words)” value [3] was “little PDE inhibition”.

With `COc1cc(-c2[o+]c3cc(O)cc(O)c3cc2O[C@@H]2O[C@H](CO)[C@@H](O)[C@H](O)[C@H]2O)cc(O)c1O.[Cl-]` [petunidin-3-glucoside, petunidin-3-glucoside chloride] the “rel. PDE activity (% of solvent control)” value ([3]; c = 600 µM) was “around 40%” and the IC50 [3] was 448 ± 39 µM.

For `CC(C)Cn1c(=O)n(C)c(=O)c2[nH]cnc21`, the IC50 [4] is listed as 30 to 50 µM.

For `O=c1c(-c2ccc(O)cc2)coc2cc(O)cc(O)c12` [genistein], the “inhibitory potency relative to 3-isobutyl-2-methylxanthine (in words)” value [4] is listed as “comparable to or greater than 3-isobutyl-2-methylxanthine”.
